Test [1] has as its target T1, Human PDGFRα, cytoplasmic domain (GST-PDGFRα) (Homo sapiens, UniProt P16234).
T1 construct: made in house
The test is described as follows: Human PDGFRα biochemical inhibition assay (off-chip Mobility Shift Assay).

Test [2] deals with T2, Human PDGFRβ, cytoplasmic domain (GST-PDGFRβ) (Homo sapiens, UniProt P09619).
T2 construct: made in house
The test is described as follows: Human PDGFRβ biochemical inhibition assay (off-chip Mobility Shift Assay). In a few lines: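 GST-tagged cytoplasmic domain (aa 557-1106) from baculovirus was incubated 1 h at room temperature with compound, CSKtide, ATP at Km and Mg²⁺ in HEPES buffer, pH 7.5. Phosphorylated and unphosphorylated peptide were separated by off-chip mobility shift, and the product ratio P/(P+S) gave percent inhibition.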

T2 sequence (P09619 with tags, fused parts or gaps): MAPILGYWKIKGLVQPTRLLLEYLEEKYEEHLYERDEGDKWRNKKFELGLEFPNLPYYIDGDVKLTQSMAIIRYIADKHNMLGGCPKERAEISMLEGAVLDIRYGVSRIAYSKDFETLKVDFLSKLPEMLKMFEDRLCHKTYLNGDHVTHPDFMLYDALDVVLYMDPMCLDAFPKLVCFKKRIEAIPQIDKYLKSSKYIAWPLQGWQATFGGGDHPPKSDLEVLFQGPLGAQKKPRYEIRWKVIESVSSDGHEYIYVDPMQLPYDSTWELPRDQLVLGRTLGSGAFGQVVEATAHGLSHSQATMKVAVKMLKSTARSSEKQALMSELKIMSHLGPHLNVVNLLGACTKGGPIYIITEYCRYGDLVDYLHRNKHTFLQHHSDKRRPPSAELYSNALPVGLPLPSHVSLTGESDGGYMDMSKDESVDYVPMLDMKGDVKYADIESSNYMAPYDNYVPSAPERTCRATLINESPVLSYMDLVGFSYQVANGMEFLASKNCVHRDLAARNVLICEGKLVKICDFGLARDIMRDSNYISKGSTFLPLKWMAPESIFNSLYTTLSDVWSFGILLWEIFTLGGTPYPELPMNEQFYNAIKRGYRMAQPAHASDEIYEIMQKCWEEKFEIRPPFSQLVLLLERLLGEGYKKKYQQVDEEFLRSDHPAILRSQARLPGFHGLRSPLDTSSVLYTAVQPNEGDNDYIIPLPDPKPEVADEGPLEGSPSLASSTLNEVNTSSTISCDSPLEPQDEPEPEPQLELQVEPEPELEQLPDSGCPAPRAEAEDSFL
T1 sequence (P16234 550-1089 T674I): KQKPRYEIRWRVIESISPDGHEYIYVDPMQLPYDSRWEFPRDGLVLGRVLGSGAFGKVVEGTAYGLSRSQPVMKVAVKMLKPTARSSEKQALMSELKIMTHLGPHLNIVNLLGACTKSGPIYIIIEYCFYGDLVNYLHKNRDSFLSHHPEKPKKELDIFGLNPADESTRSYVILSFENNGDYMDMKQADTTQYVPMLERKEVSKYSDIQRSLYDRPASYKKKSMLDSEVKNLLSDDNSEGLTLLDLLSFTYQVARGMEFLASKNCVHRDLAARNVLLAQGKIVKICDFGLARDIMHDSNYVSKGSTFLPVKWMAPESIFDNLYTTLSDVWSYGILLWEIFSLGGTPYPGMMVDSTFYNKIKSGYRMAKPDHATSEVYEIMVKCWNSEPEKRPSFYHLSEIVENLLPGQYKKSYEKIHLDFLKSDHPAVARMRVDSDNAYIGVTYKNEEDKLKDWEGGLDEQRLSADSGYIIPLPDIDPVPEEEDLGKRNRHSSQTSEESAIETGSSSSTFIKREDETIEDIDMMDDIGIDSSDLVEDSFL

In general, IC50 refers to the concentration at which inhibition is half-maximal. `Cc1n[nH]c2ncc(N[C@@H](C)c3cccc(NC(=O)c4cc(C(F)(F)F)nn4C)c3)nc12` [Compound 548, (S)-1-methyl-N-(3-(1-((3-methyl-1H-pyrazolo[3,4-b]pyrazin-5-yl)amino)ethyl)phenyl)-3-(trifluoromethyl)-1H-pyrazole-5-carboxamide]: the IC50 in test [1] and in test [2] was below 0.3 µM throughout.
For `CCn1cc2ncc(N[C@@H](C)c3cccc(NC(=O)c4ccc(OC(C)C)nc4)c3)nc2n1` [Compound 287, (S)-N-(3-(1-((2-ethyl-2H-pyrazolo[3,4-b]pyrazin-6-yl)amino)ethyl)phenyl)-6-isopropoxynicotinamide], the IC50 in test [1] and in test [2] was below 0.3 µM in each case.
For the compound `Cc1cncc(C(=O)Nc2cc(F)cc([C@H](C)Nc3cnc4cnn(C)c4n3)c2)c1` [Compound 171, (S)-N-(3-fluoro-5-(1-((1-methyl-1H-pyrazolo[3,4-b]pyrazin-6-yl)amino)ethyl)phenyl)-5-methylnicotinamide], the IC50 in test [1] and in test [2] was below 0.3 µM throughout.
As to `CCn1cc2ncc(N[C@@H](C)c3cccc(NC(=O)c4cnc(COC)s4)c3)nc2n1` [Compound 338, (S)-N-(3-(1-((2-ethyl-2H-pyrazolo[3,4-b]pyrazin-6-yl)amino)ethyl)phenyl)-2-(methoxymethyl)thiazole-5-carboxamide], the IC50 in test [1] was below 0.3 µM; in test [2], 0.3 to 1 µM.
For `CCn1cc2ncc(N[C@@H](C)c3cccc(NC(=O)c4ccc(CN5CCC5)c(Cl)c4)c3)nc2n1` [Compound 486, (S)-4-(azetidin-1-ylmethyl)-3-chloro-N-(3-(1-((2-ethyl-2H-pyrazolo[3,4-b]pyrazin-6-yl)amino)ethyl)phenyl)benzamide] the same measures were below 0.3 µM and below 0.3 µM.
Take `CCn1cc2ncc(N[C@@H](C)c3cc(NC(=O)c4cnc(OC)c(C)c4)ccc3F)nc2n1` [Compound 317, (S)-N-(3-(1-((2-ethyl-2H-pyrazolo[3,4-b]pyrazin-6-yl)amino)ethyl)-4-fluorophenyl)-6-methoxy-5-methylnicotinamide]: the IC50 in test [1] and in test [2] was below 0.3 µM each time.
In the case of `CCn1cc2ncc(N[C@@H](C)c3cccc(NC(=O)Nc4cnc(NC)c(C)c4)c3)nc2n1` [Compound 743, (S)-1-(3-(1-((2-ethyl-2H-pyrazolo[3,4-b]pyrazin-6-yl)amino)ethyl)phenyl)-3-(5-methyl-6-(methylamino)pyridin-3-yl)urea], the IC50 was below 0.3 µM in test [1] and 0.3 to 1 µM in test [2].
For `CCn1cc2ncc(N[C@@H](C)c3cc(NC(=O)Cc4ccc(C(C)(C)O)cn4)ccc3F)nc2n1` [Compound 703, (S)-N-(3-(1-((2-ethyl-2H-pyrazolo[3,4-b]pyrazin-6-yl)amino)ethyl)-4-fluorophenyl)-2-(5-(2-hydroxypropan-2-yl)pyridin-2-yl)acetamide], the IC50 in test [1] and in test [2] was at least 1 µM throughout.
On to `CCn1cc2ncc(N[C@@H](C)c3cccc(NC(=O)c4ccc(C)c(F)c4)c3)nc2n1` [Compound 344, (S)-N-(3-(1-((2-ethyl-2H-pyrazolo[3,4-b]pyrazin-6-yl)amino)ethyl)phenyl)-3-fluoro-4-methylbenzamide], for which the IC50 in test [1] and in test [2] was below 0.3 µM in each case.
As for `CCOc1ncc(C(=O)Nc2cccc([C@H](C)Nc3cnc4cn(CC)nc4n3)c2)cc1C` [Compound 314, (S)-6-ethoxyN-(3-(1-((2-ethyl-2H-pyrazolo[3,4-b]pyrazin-6-yl)amino)ethyl)phenyl)-5-methylnicotinamide], the IC50 in test [1] and in test [2] was below 0.3 µM in each case.
As for `CCn1cc2ncc(N[C@@H](C)c3cccc(NC(=O)Cc4cccc(C)c4)c3)nc2n1` [Compound 622, (S)-N-(3-(1-((2-ethyl-2H-pyrazolo[3,4-b]pyrazin-6-yl)amino)ethyl)phenyl)-2-(m-tolyl) acetamide], the IC50 in test [1] and in test [2] was below 0.3 µM in each case.

The values above are taken from patent US20230102554A1 (GB002, INC., priority 2019, published 2023).
